Legend:
[1] = Pharmacokinetics after intravenous and oral administration in rats; format: in vivo; conditions: for clearance (CL) / AUC(0-t) / half-life / Vd: iv dosing, 1 mg/kg; for F: oral bioavailability; for AUC(0-t) / half-life / Vd: rat, plasma; for Vd: read-out: Vss
Method: The LC/MS/MS system used in the analysis consists of an Agilent 1200 Series vacuum degasser, binary pump, well-plate autosampler, thermostatted column compartment, the Agilent G6430 Triple Quadrupole Mass Spectrometer with an electrosprayionization (ESI) source. Quantitative analysis was carried out using MRM mode. The parameters for MRM transitions are in the Table A.
An Agilent XDB-C18, 2.1×30 mm, 3.5 μM column was used for the analysis. 5 μL of the samples were injected. Analysis condition: The mobile phase was 0.1% formic acid in water (A) and 0.1% formic acid in methanol (B). The flow rate was 0.4 mL/min. And the gradient of Mobile phase was in the Table B.
Alternatively, an Agilent 6330 series LC/MS/MS spectrometer equipped with G1312A binary pumps, a G1367A autosampler and a G1314C UV detector were used in the analysis. An ESI source was used on the LC/MS/MS spectrometer. The analysis was done in positive ion mode as appropriate and the MRM transition for each analyte was optimized using standard solution. A Capcell MP-C18 100×4.6 mm I.D., […] column (Phenomenex, Torrance, Calif., USA) was used during the analysis. The mobile phase was 5 mM ammonia acetate, 0.1% MeOH in water (A): 5 mM ammonia acetate, 0.1% MeOH in acetonitrile (B) (70:30, v/v). The flow rate was 0.6 mL/min. Column was maintained at ambient temperature. 20 μL of the samples were injected.
The compounds disclosed herein are assessed in pharmacokinetic studies in mice, rats, dogs or monkeys. The compounds are administered as a water solution, 2% HPMC+1% TWEEN®80 in water solution, 5% DMSO+5% solutol in saline, 4% MC suspension or capsule. For the intravenous administration, the animals are generally given at 1 or 2 mg/kg dose. For the oral (p.o.) dosing, mice and rats are generally given 5 or 10 mg/kg dose, and dogs and monkeys are generally given 10 mg/kg dose. The blood samples (0.3 mL) are drawn at 0.25, 0.5, 1.0, 2.0, 3.0, 4.0, 6.0, 8.0, 12 and 24 h time points or 0.083, 0.25, 0.5, 1.0, 2.0, 4.0, 6.0, 8.0 and 24 h time points and centrifuged at 3,000 or 4000 rpm for 2 to 10 min. The plasma solutions are collected, and stored at −20° C. or −70° C. until analyzed by LC/MS/MS as described above.

[2] = Compound stability in human liver microsomes; format: in vitro ADME; conditions: for half-life: pH 7.4, 37° C., NADPH, read-out: Human T1/2; for CLint scaled: pH 7.4, in vivo CLint extrapolated
Method: (§1) Human or rat liver microsomes incubations were conducted in duplicate in polypropylene tubes. The typical incubation mixtures consisted of human or rat liver microsomes (0.5 mg protein/mL), compounds of interest (5 μM) and NADPH (1.0 mM) in a total volume of 200 μL potassium phosphate buffer (PBS, 100 mM, pH 7.4). Compounds were dissolved in DMSO and diluted with PBS such that the final concentration of DMSO was 0.05%. The enzymatic reactions were commenced with the addition of protein after a 3-min preincubation and incubated in a water bath open to the air at 37° C. Reactions were terminated at various time points (0, 5, 10, 15, 30, 60 min) by adding equal volume of ice-cold acetonitrile. The samples were stored at −80° C. until LC/MS/MS assays.
(§2) The concentrations of compounds in the incubation mixtures of human or rat liver microsomes were determined by a LC/MS/MS method. The ranges of the linearity in the concentration range were determined for each tested compounds.
(§3) A parallel incubation was performed using denatured microsomes as the negative control, and reactions were terminated at various time points (0, 15, 60 min) after incubation at 37° C.
(§4) Verapamil (1 μM) was selected as the positive control, and reactions were terminated at various time points (0, 5, 10, 15, 30, 60 min) after incubation at 37° C. Both positive and negative control samples were included in each assay to ensure the integrity of the microsomal incubation system.
(§5) In addition, the stability date of compound in human and rat liver microsomes was also obtained through the following method. Human or rat liver microsomes incubations were conducted in duplicate in polypropylene tubes. The typical incubation mixtures consisted of human or rat liver microsomes (0.5 mg protein/mL), compounds of interest (1.5 μM) and EDTA (1.0 mM) in a total volume of 30 μL potassium phosphate buffer (PBS, 100 mM, pH 7.4). Compounds were dissolved in DMSO and diluted with PBS such that the final concentration of DMSO was 0.2%. The enzymatic reactions were commenced with the addition of 15 μL NADPH (final concentration: 2 mM) after a 10-min preincubation and incubated in a water bath open to the air at 37° C. Reactions were terminated at various time points (0, 15, 30, 60 min) by adding 135 μL acetonitrile (contain IS). The samples were centrifuged at 4000 rpm for 10 min to remove protein, the supernatant was stored at −80° C. until LC/MS/MS assays. Ketanserin (1 μM) was selected as the positive control, and reactions were terminated at various time points (0, 15, 30, 60 min) after incubation at 37° C. Both positive and negative control samples were included in each assay to ensure the integrity of the microsomal incubation system.
(§6) The concentrations of compounds in human or rat liver microsome incubations were plotted as a percentage of the relevant zero time point control for each reaction. The in vivo CLint were extrapolated (ref.: Naritomi, Y.; Terashita, S.; Kimura, S.; Suzuki, A.; Kagayama, A.; and Sugiyama, Y.; Prediction of human hepatic clearance from in vivo animal experiments and in vitro metabolic studies with liver microsomes from animals and humans. Drug Metab. Dispos., 2001, 29: 1316-1324).

[3] = Compound stability in rat liver microsomes; format: in vitro ADME; conditions: for half-life: pH 7.4, 37° C., NADPH, read-out: Rat T1/2; for CLint scaled: pH 7.4, in vivo CLint extrapolated
Method: as §1, §2, §3, §4, §5, §6

JAK1 (h) = molecular target: T1, JAK1 (h) (Homo sapiens, UniProt P23458); assay: JAK1 (h) kinase assay; format: biochemical
T1 construct: purchased Millipore UK Ltd (contract assay service)
T1 sequence (P23458 whole entry): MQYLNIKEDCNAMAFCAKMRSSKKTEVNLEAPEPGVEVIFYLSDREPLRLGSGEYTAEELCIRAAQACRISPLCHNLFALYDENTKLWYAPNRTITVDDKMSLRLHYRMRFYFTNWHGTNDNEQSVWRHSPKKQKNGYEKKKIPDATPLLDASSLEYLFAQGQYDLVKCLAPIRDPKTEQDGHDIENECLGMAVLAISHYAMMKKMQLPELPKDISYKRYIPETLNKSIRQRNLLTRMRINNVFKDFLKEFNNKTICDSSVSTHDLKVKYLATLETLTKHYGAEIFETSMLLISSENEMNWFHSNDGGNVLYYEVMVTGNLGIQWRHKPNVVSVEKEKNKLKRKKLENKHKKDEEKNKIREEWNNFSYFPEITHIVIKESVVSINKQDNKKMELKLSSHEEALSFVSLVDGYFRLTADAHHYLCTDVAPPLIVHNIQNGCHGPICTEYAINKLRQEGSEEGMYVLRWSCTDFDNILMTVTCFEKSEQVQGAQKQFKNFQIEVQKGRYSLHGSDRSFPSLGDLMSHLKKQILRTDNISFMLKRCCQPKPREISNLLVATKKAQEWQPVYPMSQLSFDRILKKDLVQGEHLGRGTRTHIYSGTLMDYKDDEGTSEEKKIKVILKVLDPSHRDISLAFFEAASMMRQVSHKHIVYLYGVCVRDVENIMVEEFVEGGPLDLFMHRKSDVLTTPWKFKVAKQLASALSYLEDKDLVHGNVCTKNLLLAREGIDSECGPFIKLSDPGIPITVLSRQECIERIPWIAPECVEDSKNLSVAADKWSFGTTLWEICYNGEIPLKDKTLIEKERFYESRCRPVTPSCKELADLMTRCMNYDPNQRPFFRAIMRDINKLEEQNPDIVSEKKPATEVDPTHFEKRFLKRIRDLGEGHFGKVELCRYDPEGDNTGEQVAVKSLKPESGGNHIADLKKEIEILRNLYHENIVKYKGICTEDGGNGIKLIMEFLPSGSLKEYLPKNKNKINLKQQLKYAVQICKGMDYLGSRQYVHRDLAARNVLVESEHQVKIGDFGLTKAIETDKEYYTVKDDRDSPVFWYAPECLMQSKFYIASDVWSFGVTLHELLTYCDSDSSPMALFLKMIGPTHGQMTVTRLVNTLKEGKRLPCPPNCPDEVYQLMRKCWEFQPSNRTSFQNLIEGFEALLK
Method: The above assay procedure can be used to determine the IC50 for inhibition and/or the inhibition constant, Ki. The IC50 is defined as the concentration of compound required to reduce the enzyme activity by 50% under the condition of the assay. The IC50 value is estimated by preparing a 10 point curve using a ½ log dilution series (for example, a typical curve may be prepared using the following compound concentrations: 3 μM, 1 μM, 0.3 μM, 0.1 μM, 0.03 μM, 0.01 μM, 0.003 μM, 0.001 μM, 0.0003 μM and 0 μM).
JAK1 (h) is incubated with 20 mM Tris/HCl pH 7.5, 0.2 mM EDTA, 500 μM GEEPLYWSFPAKKK, 10 mM MgAcetate and [γ-^33P-ATP] (specific activity approx. 500 cpm/pmol, concentration as required). The reaction is initiated by the addition of the MgATP mix. After incubation for 40 minutes at room temperature, the reaction is stopped by the addition of 3% phosphoric acid solution. 10 μL of the reaction is then spotted onto a P30 filtermat and washed three times for 5 minutes in 75 mM phosphoric acid and once in methanol prior to drying and scintillation counting.
The kinase assays described herein were performed at Millipore UK Ltd, Dundee Technology Park, Dundee DD2 1SW, UK.

Compound | clearance (CL) [1] [mL/min/kg] | F [1] [%] | AUC(0-t) [1] [ng·h/mL] | half-life [1] [min] | Vd [1] [L/kg] | half-life [2] [min] | CLint scaled [2] [mL/min/kg] | half-life [3] [min] | CLint scaled [3] [mL/min/kg] | IC50 (JAK1 (h)) [nM]
CCC1CN(c2ccc(C#N)nn2)CCC1N(C)c1nc(Nc2ccc3c(C)n(C)nc3c2)ncc1Cl (stereo not drawn) [Ex. 19, 6-(4-((5-chloro-2-((2,3-dimethyl-2H-indazol-6-yl)amino)pyrimidin-4-yl)(methyl)amino)-3-ethylpiperidin-1-yl)pyridazine-3-carbonitrile] | 43.8 | 23.4 | 381 | 27 | 1.4 | 10.5 | 165 | 6.55 | 379 | –
CCC1CN(c2ccc(C#N)cn2)CCC1N(C)c1nc(Nc2cc(C)n(C)n2)ncc1Cl (stereo not drawn) [Ex. 18, 6-(4-((5-chloro-2-((1,5-dimethyl-1H-pyrazol-3-yl)amino)pyrimidin-4-yl) (methyl)amino)-3-ethylpiperidin-1-yl)nicotinonitrile] | 23.7 | 66.8 | 663 | 109 | 2.88 | 22.9 | 75.9 | 37.6 | 66.1 | –
Cc1cnc(Nc2cnn(C)c2)nc1N(C)C1CCN(c2ccc(C#N)cn2)CC1 [Ex. 6, 6-(4-(methyl(5-methyl-2-((1-methyl-1H-pyrazol-4-yl)amino)pyrimidin-4-yl)amino)piperidin-1-yl)nicotinonitrile] | 20.2 | 22.2 | 1360 | 35.9 | 0.56 | 15.6 | 111 | 4.3 | 577 | 2
CCC1CN(c2ccc(C#N)cn2)CCC1Nc1nc(Nc2cn(C)nc2C)ncc1Cl (stereo not drawn) [Ex. 16, 6-(4-((5-chloro-2-((1,3-dimethyl-1H-pyrazol-4-yl)amino)pyrimidin-4-yl)amino)-3-ethylpiperidin-1-yl)nicotinonitrile] | 23.3 | 60.9 | 722 | 39.6 | 0.96 | 3.94 | 442 | 6.85 | 363 | –
CCC1CN(c2ccc(C#N)nn2)CCC1Nc1nc(Nc2ccc3c(C)n(C)nc3c2)ncc1Cl (stereo not drawn) [Ex. 17, 6-(4-((5-chloro-2-((2,3-dimethyl-2H-indazol-6-yl)amino)pyrimidin-4-yl)amino)-3-ethylpiperidin-1-yl)pyridazine-3-carbonitrile] | 18.3 | 36.0 | 911 | 40.2 | 0.45 | 11.1 | 156 | 3.81 | 652 | –
Cc1c2ccc(Nc3ncc(Cl)c(N(C)C4CCN(c5ccc(C#N)cn5)CC4)n3)cc2nn1C [Ex. 8, 6-(4-((5-chloro-2-((2,3-dimethyl-2H-indazol-6-yl)amino)pyrimidin-4-yl) (methyl)amino)piperidin-1-yl)nicotinonitrile] | – | – | – | – | – | – | – | – | – | 3

Continued, values first:

clearance (CL) [1] [mL/min/kg] | F [1] [%] | AUC(0-t) [1] [ng·h/mL] | half-life [1] [min] | Vd [1] [L/kg] | half-life [2] [min] | CLint scaled [2] [mL/min/kg] | half-life [3] [min] | CLint scaled [3] [mL/min/kg] | IC50 (JAK1 (h)) [nM] | Compound
18.3 | 30.4 | 881 | 90 | 1.9 | 26 | 66.9 | 15 | 166 | – | CCC1CN(c2ccc(C#N)cn2)CCC1N(C)c1nc(Nc2ccc3c(C)n(C)nc3c2)ncc1Cl (stereo not drawn) [Ex. 20, 6-(4-((5-chloro-2-((2,3-dimethyl-2H-indazol-6-yl)amino)pyrimidin-4-yl)(methyl)amino)-3-ethylpiperidin-1-yl)nicotinonitrile]
33.2 | 62.7 | 512 | 39.6 | 1.66 | 62.6 | 27.8 | 45.5 | 54.6 | – | CCC1CN(c2ccc(C#N)nn2)CCC1Nc1ccnc(Nc2cc(C)n(C)n2)n1 (stereo not drawn) [Ex. 22, 6-(4-((2-((1,5-dimethyl-1H-pyrazol-3-yl)amino)pyrimidin-4-yl)amino)-3-ethylpiperidin-1-yl)pyridazine-3-carbonitrile]
6.83 | 31.0 | 2430 | 81 | 0.84 | 15.5 | 112 | 20.4 | 121 | – | CCC1CN(c2ccc(C#N)cn2)CCC1Nc1nc(Nc2ccc3c(C)n(C)nc3c2)ncc1Cl (stereo not drawn) [Ex. 23]
– | – | – | – | – | 6.4 | 272 | 7.12 | 349 | – | Cc1c2ccc(Nc3ncc(Cl)c(N(C)C4CCN(c5ccc(C#N)nn5)CC4)n3)cc2nn1C [Ex. 24]
6.83 | 106.1 | 2320 | 93.6 | 0.81 | 17.9 | 97.3 | 38.8 | 64 | – | CCC1CN(c2ccc(C#N)cn2)CCC1Nc1nc(Nc2cc(C)n(C)n2)ncc1Cl (stereo not drawn) [Ex. 21, 6-(4-((5-chloro-2-((1,5-dimethyl-1H-pyrazol-3-yl)amino)pyrimidin-4-yl)amino)-3-ethylpiperidin-1-yl)nicotinonitrile]
